How the values were obtained:
[1] = test system: RAW264.7; test: Antiinflammatory activity in mouse RAW264.7 cells assessed as inhibition of LPS/IFN-gamma-stimulated nitric oxide production at 50 uM after 17 hrs by Griess assay; format: functional; settings: RAW264.7, 17 h
[2] = test system: RAW264.7; test: Antiinflammatory activity in mouse RAW264.7 cells assessed as inhibition of LPS/IFN-gamma-stimulated nitric oxide production after 17 hrs by Griess assay; format: functional, cell-based; settings: RAW264.7, 17 h
[3] = test system: RAW264.7; test: Cytotoxicity against mouse RAW264.7 cells by MTT assay; format: cell-based
[4] = Chemical stability of the compound in phosphate buffer at 20 uM at pH 2.4 at 25 degC by UV-visible spectrophotometric analysis; format: physicochemical; settings: pH 2.4, 20 µM
[5] = Chemical stability of the compound in phosphate buffer at 20 uM at pH 7 at 25 degC by UV-visible spectrophotometric analysis; format: physicochemical; settings: pH 7, 20 µM
[6] = Chemical stability of the compound in phosphate buffer at 20 uM at pH 12.7 at 25 degC by UV-visible spectrophotometric analysis; format: physicochemical; settings: pH 12.7, 20 µM

SMILES	IC50 ([2]; read-out: IC50) [µM]	IC50 ([2]; read-out: pIC50 (converted)) [µM]	Stability [4]	Stability [5]	Stability [6]	inhibition at 50 µM [1] [%]	IC50 [3] [µM]
COc1cc(/C=C/C=C/C(=O)c2ccccc2)cc(OC)c1O	42	42				64.1	28.7
Cc1ccc(/C=C/C=C/C(=O)c2ccccc2)cc1						73.7	
Cc1cc(C(=O)/C=C/C=C/c2ccccc2)c(C)o1	59	58.9				84.6	> 100
COc1cc(/C=C/C(=O)CC(=O)/C=C/c2ccc(O)c(OC)c2)ccc1O [CURCUMIN]			Stable	Unstable	Stable	99.3	> 100
O=C(/C=C/C=C/c1ccc(Cl)cc1)c1ccc(Cl)cc1						31.2	
CN(C)c1ccc(/C=C/C=C/C(=O)c2ccccc2O)cc1						16.4	
COc1ccc(/C=C/C=C/C(=O)c2cc(C)sc2C)cc1						44.8	
O=C(/C=C/C=C/c1ccccc1)c1cc(Cl)ccc1O						< 10	
COc1ccc(/C=C/C=C/C(=O)c2cc(C)oc2C)cc1	39.8	45.7				59.7	> 100
O=C(/C=C/C=C/c1ccccc1)c1cccc(O)c1	26.1	26.1				104	48.7
O=C(/C=C/C=C/c1ccccc1)c1cc(Br)ccc1O						< 10	
COc1cc(/C=C/C=C/C(=O)c2ccc(F)cc2)cc(OC)c1O	39.3	39.3				76.7	5
COc1ccc(C(=O)/C=C/C=C/c2ccc(N(C)C)cc2)cc1	77.4	77.4				54.5	> 100
CN(C)c1ccc(/C=C/C=C/C(=O)c2cccs2)cc1						32.4	
COc1ccc(C(=O)/C=C/C=C/c2ccccc2)cc1	71.2	71.1				51.1	> 100
O=C(/C=C/C=C/c1ccccc1)c1ccc(Cl)cc1						< 10	

SMILES	IC50 ([2]; read-out: IC50) [µM]	IC50 ([2]; read-out: pIC50 (converted)) [µM]	Stability [4]	Stability [5]	Stability [6]	inhibition at 50 µM [1] [%]	IC50 [3] [µM]
COc1ccc(/C=C/C=C/C(=O)c2cc(Cl)ccc2O)cc1						26.4	
O=C(/C=C/C=C/c1ccc(Cl)cc1)c1cc(Cl)ccc1O						< 10	
COc1ccc(/C=C/C=C/C(=O)c2cc(OC)c(O)c(OC)c2)cc1	21.5	21.4				89.4	58.6
O=C(/C=C/C=C/c1ccccc1)c1ccccc1	44.6	44.6				66.8	44.3
O=C(/C=C/C=C/c1ccccc1)c1cc(Cl)cc(Cl)c1O						19.6	
COc1ccc(/C=C/C=C/C(=O)c2ccc(OC)cc2)cc1						41.6	
CN(C)c1ccc(/C=C/C=C/C(=O)c2ccco2)cc1	116					56.9	> 100
O=C(/C=C/C=C/c1ccccc1)c1ccccc1O						< 10	
COc1ccc(/C=C/C=C/C(=O)c2ccc(OC)cc2OC)cc1						< 10	
COc1ccc(/C=C/C=C/C(=O)c2ccc(C)s2)cc1						41.7	
O=C(/C=C/C=C/c1ccccc1)c1ccc(F)cc1						33.1	
COc1ccc(/C=C/C=C/C(=O)c2ccc(F)cc2)cc1						40	
CN(C)c1ccc(/C=C/C=C/C(=O)c2ccccc2)cc1	73.6	73.5				51.2	> 100
COc1ccc(/C=C/C=C/C(=O)c2cc(Cl)cc(Cl)c2O)cc1						< 10	
COc1ccc(/C=C/C=C/C(=O)c2ccc(C)cc2)cc1						42.2	

Continued, in another order:

IC50 ([2]; read-out: IC50) [µM]	IC50 ([2]; read-out: pIC50 (converted)) [µM]	Stability [4]	Stability [5]	Stability [6]	SMILES	inhibition at 50 µM [1] [%]	IC50 [3] [µM]
16.3	16.3				COc1ccc(/C=C/C=C/C(=O)c2ccc(OC)c(O)c2)cc1	100	28.4
16.4	16.4				O=C(/C=C/C=C/c1ccc(O)cc1)c1ccc(O)cc1	102	> 100
63.8	63.8				CN(C)c1ccc(/C=C/C=C/C(=O)c2ccc(F)cc2)cc1	71.5	> 100
10.2	10.2	Stable	Stable	Stable	Cc1ccc(C(=O)/C=C/C=C/c2ccc(O)cc2)s1	103	28.3
27.1	27.1				COc1ccc(C(=O)/C=C/C=C/c2ccc(O)cc2)c(O)c1	93.4	> 100
70.5	70.5				COc1ccc(C(=O)/C=C/C=C/c2ccc(Cl)cc2)cc1	45.4	80.2
27.5	27.5				COc1ccc(/C=C/C=C/C(=O)c2ccco2)cc1	61.5	76.6
14.8	14.8				O=C(/C=C/C=C/c1ccc(O)cc1)c1ccc(F)cc1	110	45.5
23.5	23.4				COc1ccc(/C=C/C=C/C(=O)c2ccc(O)c(Cl)c2)cc1	98.2	67.6
27.2	27.2				O=C(/C=C/C=C/c1ccc(O)cc1)c1ccc(O)cc1O	82.1	> 100
57.4	57.4				COc1ccc(/C=C/C=C/C(=O)c2ccc[nH]2)cc1	95.8	> 100
21.8	21.8				COc1ccc(/C=C/C=C/C(=O)c2ccc(O)cc2F)cc1	102	60.3
68.6	68.5				Cc1ccc(C(=O)/C=C/C=C/c2ccccc2)s1	52.6	> 100
45.8	45.8				COc1ccc(/C=C/C=C/C(=O)c2ccccc2)cc1	77.4	> 100
47.9	47.9				COc1ccc(/C=C/C=C/C(=O)c2cccs2)cc1	69.6	68.5

From ChEMBL document CHEMBL3745664, “Synthesis, biological evaluation and QSAR studies of diarylpentanoid analogues as potential nitric oxideinhibitors” (Medchemcomm, 2015)
